Article PMC7979765, “trans-Translation inhibitors bind to a novel site on the ribosome and clear Neisseria gonorrhoeae in vivo” (Nature Communications, 2021)
Values joined by “and” are separate entries in the source; they are usually repeats but may differ in a detail not shown here. Equal values may be shown once. Read-outs that look alike come from different tables or passages of the source.

What was measured:
[1] = biological target: T1, Nav1.5 (Homo sapiens, UniProt Q14524); test: Cardiac Ion Channel Panel; assay type: cell-based
T1 construct: Eurofins Discovery Services (contract assay) CYL8004QP2DR; CYL7004QP1DR; CYL7004QP2DR
T1 sequence (Q14524 whole entry): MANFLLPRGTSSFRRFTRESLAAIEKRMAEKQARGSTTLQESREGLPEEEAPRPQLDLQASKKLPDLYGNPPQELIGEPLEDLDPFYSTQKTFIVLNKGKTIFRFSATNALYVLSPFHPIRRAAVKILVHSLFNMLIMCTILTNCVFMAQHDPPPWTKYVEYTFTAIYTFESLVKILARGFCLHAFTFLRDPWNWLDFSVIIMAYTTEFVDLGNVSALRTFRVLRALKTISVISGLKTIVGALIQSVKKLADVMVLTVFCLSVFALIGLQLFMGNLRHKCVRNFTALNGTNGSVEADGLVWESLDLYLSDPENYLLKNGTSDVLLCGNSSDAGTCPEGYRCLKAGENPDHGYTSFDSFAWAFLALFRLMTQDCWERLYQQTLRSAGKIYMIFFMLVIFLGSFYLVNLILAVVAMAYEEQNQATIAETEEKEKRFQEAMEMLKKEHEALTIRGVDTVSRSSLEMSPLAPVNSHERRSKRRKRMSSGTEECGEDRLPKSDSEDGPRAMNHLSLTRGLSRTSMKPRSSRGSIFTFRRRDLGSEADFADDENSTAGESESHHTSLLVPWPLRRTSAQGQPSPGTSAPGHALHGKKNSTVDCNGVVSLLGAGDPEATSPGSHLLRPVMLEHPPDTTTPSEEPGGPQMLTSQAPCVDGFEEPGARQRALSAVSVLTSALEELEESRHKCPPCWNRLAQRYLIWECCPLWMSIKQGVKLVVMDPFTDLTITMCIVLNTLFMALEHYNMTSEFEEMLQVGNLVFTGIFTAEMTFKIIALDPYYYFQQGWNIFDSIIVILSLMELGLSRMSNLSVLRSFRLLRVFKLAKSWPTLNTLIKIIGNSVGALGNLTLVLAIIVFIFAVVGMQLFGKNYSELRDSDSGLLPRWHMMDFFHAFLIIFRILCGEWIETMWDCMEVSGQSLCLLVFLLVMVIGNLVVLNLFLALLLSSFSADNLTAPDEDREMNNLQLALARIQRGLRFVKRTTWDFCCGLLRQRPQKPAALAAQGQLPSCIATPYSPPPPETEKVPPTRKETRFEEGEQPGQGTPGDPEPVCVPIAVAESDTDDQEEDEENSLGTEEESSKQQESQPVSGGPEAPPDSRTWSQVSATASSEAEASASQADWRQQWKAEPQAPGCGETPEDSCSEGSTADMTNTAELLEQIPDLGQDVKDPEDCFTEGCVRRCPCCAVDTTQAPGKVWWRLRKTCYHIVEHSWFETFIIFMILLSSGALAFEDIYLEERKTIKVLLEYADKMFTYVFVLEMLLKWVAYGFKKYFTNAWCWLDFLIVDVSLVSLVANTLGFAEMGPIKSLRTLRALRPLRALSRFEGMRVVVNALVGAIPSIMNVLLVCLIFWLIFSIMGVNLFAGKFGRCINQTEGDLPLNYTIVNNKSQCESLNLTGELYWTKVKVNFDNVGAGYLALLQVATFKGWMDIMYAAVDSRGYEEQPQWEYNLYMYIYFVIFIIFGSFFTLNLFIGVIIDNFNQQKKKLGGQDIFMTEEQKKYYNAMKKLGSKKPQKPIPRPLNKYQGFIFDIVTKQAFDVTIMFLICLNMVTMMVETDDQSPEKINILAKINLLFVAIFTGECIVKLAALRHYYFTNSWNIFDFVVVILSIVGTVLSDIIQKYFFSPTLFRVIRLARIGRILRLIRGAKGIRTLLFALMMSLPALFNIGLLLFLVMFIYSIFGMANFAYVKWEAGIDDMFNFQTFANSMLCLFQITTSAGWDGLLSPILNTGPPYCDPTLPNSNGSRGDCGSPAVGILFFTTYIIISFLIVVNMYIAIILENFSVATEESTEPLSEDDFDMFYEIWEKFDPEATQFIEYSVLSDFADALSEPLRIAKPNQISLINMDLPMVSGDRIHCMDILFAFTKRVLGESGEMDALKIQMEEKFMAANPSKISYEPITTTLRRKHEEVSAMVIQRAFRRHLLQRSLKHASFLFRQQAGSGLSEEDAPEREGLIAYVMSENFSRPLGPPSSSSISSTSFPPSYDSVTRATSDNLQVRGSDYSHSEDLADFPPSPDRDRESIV
Protocol: (§1) Several in vitro selectivity assays were performed at Eurofins Discovery Services using established methods and controls that behaved as expected (Supplementary Tables 5 and 6). […] For receptor panel profiling, MBX-4132 was evaluated at 10 μM and activity of >50% (agonist or antagonist; note that negative % inhibition indicates agonism) was scored as active.

[2] = biological target: T2, Opiate Delta1 (OP1, DOP) (Homo sapiens, UniProt P41143); test: Receptor Profiling 260130; assay type: binding
T2 construct: purchased Eurofins Discovery Services (Panlabs safety panel)
T2 sequence (P41143 whole entry): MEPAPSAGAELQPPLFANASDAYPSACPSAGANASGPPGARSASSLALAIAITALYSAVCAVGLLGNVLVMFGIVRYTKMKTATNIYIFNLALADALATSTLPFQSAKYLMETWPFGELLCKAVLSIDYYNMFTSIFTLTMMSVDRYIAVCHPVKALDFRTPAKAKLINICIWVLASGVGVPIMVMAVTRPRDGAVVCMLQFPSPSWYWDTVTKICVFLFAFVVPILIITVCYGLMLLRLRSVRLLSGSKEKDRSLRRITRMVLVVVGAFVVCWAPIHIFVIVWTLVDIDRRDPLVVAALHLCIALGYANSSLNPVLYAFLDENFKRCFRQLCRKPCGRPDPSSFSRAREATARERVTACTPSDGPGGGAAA
Protocol: as §1

[3] = Serum shift of MIC (+/- 10% fetal bovine serum)
[4] = Serum protein binding, rat; assay type: in vitro ADME; settings: Eurofins; for fraction unbound: rat, serum, read-out: Serum binding (% bound) Rat (converted)
Protocol: Serum protein binding was determined using an equilibrium dialysis method as described. The amount of compound in each chamber (buffer and serum) was measured using methods for reverse-phase liquid chromatography/mass spectroscopy methods that were customized for each compound.

[5] = in vitro; settings: mouse, serum
[6] = biological target: T3, Protein Tyrosine Kinase, LCK (Homo sapiens, UniProt P06239); test: Receptor Profiling 176020; assay type: biochemical
T3 construct: purchased Eurofins Discovery Services (Panlabs safety panel)
T3 sequence (P06239 whole entry): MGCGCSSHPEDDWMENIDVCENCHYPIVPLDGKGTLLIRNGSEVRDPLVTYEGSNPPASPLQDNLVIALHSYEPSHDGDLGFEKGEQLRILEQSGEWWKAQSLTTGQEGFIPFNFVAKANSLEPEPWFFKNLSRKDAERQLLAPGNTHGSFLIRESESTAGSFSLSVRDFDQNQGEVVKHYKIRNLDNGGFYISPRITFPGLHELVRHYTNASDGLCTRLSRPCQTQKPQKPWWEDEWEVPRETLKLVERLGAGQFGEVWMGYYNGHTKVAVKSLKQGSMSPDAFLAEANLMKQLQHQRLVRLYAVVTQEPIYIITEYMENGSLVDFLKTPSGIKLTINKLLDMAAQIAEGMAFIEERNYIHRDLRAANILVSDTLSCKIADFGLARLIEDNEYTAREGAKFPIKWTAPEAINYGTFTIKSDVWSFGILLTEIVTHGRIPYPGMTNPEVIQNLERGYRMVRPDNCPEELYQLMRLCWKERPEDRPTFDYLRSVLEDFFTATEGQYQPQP
Protocol: as §1

[7] = tested on: Salmonella typhimurium strains TA98 and TA100; assay type: cell-based
Protocol: The Ames assay was performed at SRI Biosciences, following the standard protocols established there[55]–[57]. In brief, samples were evaluated for their ability to induce genetic damage using the plate incorporation method with Salmonella typhimurium strains TA98 and TA100 with and without a metabolic activation mixture containing 10% Aroclar-1254-induced rat-liver microsomes (S9). MBX-4132 was tested from a 5 mg/mL DMSO stock solution (the solubility limit), which provided plate concentrations up to 500 µg/plate, with serial dilutions accessing doses as low as 5 µg/plate. MBX-4132 precipitated at the two highest dose levels (500 and 100 µg/plate), but at 50 µg/plate, no precipitation was observed. […] Test articles were considered mutagenic when the mean number of revertant colonies increased in a dose-dependent manner. Some cytotoxicity was observed, but sufficient colonies were formed to allow analysis. […] Data for 2-nitrofluorene and sodium azide (positive controls) and DMSO (negative control) were included for reference.

[8] = Murine tolerability studies; assay type: in vivo; settings: for adverse effects (in words): mice
Protocol: Single dose tolerability studies — Female CD-1 mice were fasted for 2 h prior, and 4 h after dosing. […] 4–6 weeks-old CD-1 female mice were received from Charles River laboratories and acclimated for at least 5 days prior to the start of the study. Apart from specific instances of fasting described in the experimental, the mice had free access to food and water. The animals were housed 3–6 per cage in a temperature and humidity-controlled room with a 12 h light cycle. All procedures described are in compliance with the Animal Welfare Act, the Guide for the Care and Use of Laboratory Animals, and the Office of Laboratory Animal Welfare. These studies conform to the NeoSome IACUC policies and Operational Guidelines as approved by the IACUC membership, NeoSome Safety Officers, or Attending Veterinarian. All testing was performed at Neosome LLC.
Multidose tolerability studies — In preparation for this study, an abbreviated version of the above murine PK study using the same formulation (A) examined fasted mice vs. fed mice was performed, with plasma samples taken at 1 and 4 h post dosing and analyses as described in the PK section.
Female CD-1 mice were given free access to food and water. […] Any abnormal observations (behavior, agility, weight, coat condition and appearance, color of urine, quality of feces, etc.) were noted.

[9] = biological target: T4, CYP2C19 (Homo sapiens, UniProt P33261); test: Cyp inhibition assay 4874; assay type: in vitro ADME; settings: catalog reference 4874, read-out: pIC50 (µM) reported (converted)
T4 construct: Eurofins Discovery Services (contract assay) 4874
T4 sequence (P33261 whole entry): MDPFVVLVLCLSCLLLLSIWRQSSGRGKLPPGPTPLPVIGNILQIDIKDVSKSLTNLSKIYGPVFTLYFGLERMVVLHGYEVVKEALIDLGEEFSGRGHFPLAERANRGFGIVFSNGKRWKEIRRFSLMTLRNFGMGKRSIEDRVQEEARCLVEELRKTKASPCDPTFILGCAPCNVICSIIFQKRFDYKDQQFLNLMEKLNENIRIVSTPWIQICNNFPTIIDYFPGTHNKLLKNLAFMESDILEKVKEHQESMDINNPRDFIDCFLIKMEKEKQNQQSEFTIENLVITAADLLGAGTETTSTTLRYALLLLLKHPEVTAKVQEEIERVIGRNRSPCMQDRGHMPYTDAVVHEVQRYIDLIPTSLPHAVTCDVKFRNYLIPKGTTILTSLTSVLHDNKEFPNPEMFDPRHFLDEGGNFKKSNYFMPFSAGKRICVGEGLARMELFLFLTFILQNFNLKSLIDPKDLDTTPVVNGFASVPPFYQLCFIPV
Protocol: as §1

O=C(Nc1nnc(-c2ccc(F)cc2)o1)N1CCc2ccccc2C1 [MBX-4132]
IC50 [1]: > 30 µM
inhibition at 10 µM [2]: 5%
Serum shift (fold) ([3]; Average Value): 16 fold
serum Shift ([3]; Ratio of MIC +/- 10% fetal bovine serum added): 16
Serum shift (fold) ([3]; Replicate 1/2): 16 fold
Serum binding (% bound) Rat ([4]; Replicate 1/2): 99.9% and 85.2%
fraction unbound ([4]; Reported value): 0.07
fraction unbound ([4]; Average Value): 0.074
remaining at 1 h ([5]; Murine serum stability (% remaining after 1 hr)): 109%
remaining at 1 h ([5]; Murine serum stability (% remaining after 1 hr), Replicate 1/2, MBX): 92.6%
remaining at 1 h ([5]; Murine serum stability (% remaining after 1 hr), Reported value, MBX): > 99.8%
remaining at 1 h ([5]; serum stability, % remaining after 1 h, murine serum, 1 h incubation at 37 °C): > 99.8%
inhibition at 10 µM [6]: 29%
Average Mean Revertants/plate ([7]; TA98, 1 µg/plate, + S9): 23.5 Revertants/plate
Average Mean Revertants/plate ([7]; TA98, 1 µg/plate, no S9): 21.5 Revertants/plate
Mean Revertants/plate ([7]; TA98, 1 µg/plate, no S9, replicates): 23 Revertants/plate and 20 Revertants/plate
Average Mean Revertants/plate ([7]; TA98, 5 µg/plate, + S9): 22 Revertants/plate
Average Mean Revertants/plate ([7]; TA98, 5 µg/plate, no S9): 17.0 Revertants/plate
Mean Revertants/plate ([7]; TA98, 5 µg/plate, no S9, replicates): 18 Revertants/plate and 16 Revertants/plate
Average Mean Revertants/plate ([7]; TA98, 10 µg/plate, + S9): 21 Revertants/plate
Average Mean Revertants/plate ([7]; TA98, 10 µg/plate, no S9): 15.0 Revertants/plate
Mean Revertants/plate ([7]; TA98, 10 µg/plate, no S9, replicates): 14 Revertants/plate and 16 Revertants/plate
Average Mean Revertants/plate ([7]; TA98, 50 µg/plate, + S9): 18.5 Revertants/plate
Average Mean Revertants/plate ([7]; TA98, 50 µg/plate, no S9): 20.0 Revertants/plate
Mean Revertants/plate ([7]; TA98, 50 µg/plate, no S9, replicates): 18 Revertants/plate and 22 Revertants/plate
Average Mean Revertants/plate ([7]; TA98, 100 µg/plate, + S9): 17.5 Revertants/plate
Average Mean Revertants/plate ([7]; TA98, 100 µg/plate, no S9): 20.0 Revertants/plate
Mean Revertants/plate ([7]; TA98, 100 µg/plate, no S9, replicates): 18 Revertants/plate and 22 Revertants/plate
Average Mean Revertants/plate ([7]; TA98, 500 µg/plate, + S9): 20 Revertants/plate
Average Mean Revertants/plate ([7]; TA98, 500 µg/plate, no S9): 17.5 Revertants/plate
Mean Revertants/plate ([7]; TA98, 500 µg/plate, no S9, replicates): 19 Revertants/plate and 16 Revertants/plate
Mean Revertants/plate ([7]; TA98, + S9, 1 µg/plate): 23.5
Mean Revertants/plate ([7]; TA98, + S9, 5 µg/plate): 22.0
Mean Revertants/plate ([7]; TA98, + S9, 10 µg/plate): 21.0
Mean Revertants/plate ([7]; TA98, + S9, 50 µg/plate): 18.5
Mean Revertants/plate ([7]; TA98, + S9, 100 µg/plate): 17.5
Mean Revertants/plate ([7]; TA98, + S9, 500 µg/plate): 20.0
Mean Revertants/plate ([7]; TA98, without S9, 1 µg/plate): 21.5
Mean Revertants/plate ([7]; TA98, without S9, 5 µg/plate): 17.0
Mean Revertants/plate ([7]; TA98, without S9, 10 µg/plate): 15.0
Mean Revertants/plate ([7]; TA98, without S9, 50 µg/plate): 20.0
Mean Revertants/plate ([7]; TA98, without S9, 100 µg/plate): 20.0
Mean Revertants/plate ([7]; TA98, without S9, 500 µg/plate): 17.5
revertant colonies vs DMSO control (in words) ([7]; TA98 and TA100, with and without S9, any concentration tested): no significant deviation
Average Mean Revertants/plate ([7]; TA100, 1 µg/plate, + S9): 107.5 Revertants/plate
Average Mean Revertants/plate ([7]; TA100, 1 µg/plate, no S9): 112.5 Revertants/plate
Mean Revertants/plate ([7]; TA100, 1 µg/plate, no S9, replicates): 108 Revertants/plate and 117 Revertants/plate
Average Mean Revertants/plate ([7]; TA100, 5 µg/plate, + S9): 125.5 Revertants/plate
Average Mean Revertants/plate ([7]; TA100, 5 µg/plate, no S9): 99.0 Revertants/plate
Mean Revertants/plate ([7]; TA100, 5 µg/plate, no S9, replicates): 98 Revertants/plate and 100 Revertants/plate
Average Mean Revertants/plate ([7]; TA100, 10 µg/plate, + S9): 102 Revertants/plate
Average Mean Revertants/plate ([7]; TA100, 10 µg/plate, no S9): 97.0 Revertants/plate
Mean Revertants/plate ([7]; TA100, 10 µg/plate, no S9, replicates): 94 Revertants/plate and 100 Revertants/plate
Average Mean Revertants/plate ([7]; TA100, 50 µg/plate, + S9): 71 Revertants/plate
Average Mean Revertants/plate ([7]; TA100, 50 µg/plate, no S9): 73.0 Revertants/plate
Mean Revertants/plate ([7]; TA100, 50 µg/plate, no S9, replicates): 79 Revertants/plate and 67 Revertants/plate
Average Mean Revertants/plate ([7]; TA100, 100 µg/plate, + S9): 43 Revertants/plate
Average Mean Revertants/plate ([7]; TA100, 100 µg/plate, no S9): 54.0 Revertants/plate
Mean Revertants/plate ([7]; TA100, 100 µg/plate, no S9, replicates): 55 Revertants/plate and 53 Revertants/plate
Average Mean Revertants/plate ([7]; TA100, 500 µg/plate, + S9): 19.5 Revertants/plate
Average Mean Revertants/plate ([7]; TA100, 500 µg/plate, no S9): 35.5 Revertants/plate
Mean Revertants/plate ([7]; TA100, 500 µg/plate, no S9, replicates): 38 Revertants/plate and 33 Revertants/plate
Mean Revertants/plate ([7]; TA100, + S9, 1 µg/plate): 107.5
Mean Revertants/plate ([7]; TA100, + S9, 5 µg/plate): 125.5
Mean Revertants/plate ([7]; TA100, + S9, 10 µg/plate): 102.0
Mean Revertants/plate ([7]; TA100, + S9, 50 µg/plate): 71.0
Mean Revertants/plate ([7]; TA100, + S9, 100 µg/plate): 43.0
Mean Revertants/plate ([7]; TA100, + S9, 500 µg/plate): 19.5
Mean Revertants/plate ([7]; TA100, without S9, 1 µg/plate): 112.5
Mean Revertants/plate ([7]; TA100, without S9, 5 µg/plate): 99.0
Mean Revertants/plate ([7]; TA100, without S9, 10 µg/plate): 97.0
Mean Revertants/plate ([7]; TA100, without S9, 50 µg/plate): 73.0
Mean Revertants/plate ([7]; TA100, without S9, 100 µg/plate): 54.0
Mean Revertants/plate ([7]; TA100, without S9, 500 µg/plate): 35.5
abnormal observations, multidose tolerability ([8]; female CD-1 mice, 10 ml/kg of 1.0 mg/ml suspension QD or BID for 7 d, observed 10 d): No abnormal observations
abnormal observations, single dose tolerability ([8]; female CD-1 mice, oral gavage 10 ml/kg of 1.0, 2.5 or 10.0 mg/ml suspension, 24 h): No abnormal observations
adverse effects (in words) ([8]; repeat dosing 10 mg/kg BID, 7 d): no obvious adverse effects
adverse effects (in words) ([8]; single dose of 100 mg/kg): no obvious adverse effects
IC50 [9]: > 100 µM
